Common to all, as to assay type: biochemical
One experiment deals with T1, human CerS6 (Homo sapiens, UniProt Q6ZMG9).
T1 construct: host or cells: HEK293
T1 sequence (Q6ZMG9 1-384): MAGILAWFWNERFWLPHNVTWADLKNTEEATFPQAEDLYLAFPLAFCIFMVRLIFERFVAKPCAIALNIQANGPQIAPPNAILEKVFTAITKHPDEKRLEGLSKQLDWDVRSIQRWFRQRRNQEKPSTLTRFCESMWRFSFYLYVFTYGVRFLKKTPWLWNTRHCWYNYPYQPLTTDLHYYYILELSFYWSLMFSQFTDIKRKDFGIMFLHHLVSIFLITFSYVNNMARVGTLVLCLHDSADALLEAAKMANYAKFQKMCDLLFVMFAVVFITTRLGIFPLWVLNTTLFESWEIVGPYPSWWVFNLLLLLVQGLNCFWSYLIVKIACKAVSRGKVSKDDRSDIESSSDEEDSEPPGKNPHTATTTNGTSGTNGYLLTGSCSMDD
As to the kind of experiment: Ceramide synthase assay, NBD-dihydrosphingosine, C16:0-CoA; HEK293 cells expressing human CerS6. Particulars: inhibitor range 10 nM–100 μM; read-out: IC50 hCerS6. As for the experimental part: (§1) Ceramide synthase assays were carried out using an HPLC-based assay with a fluorescent NBD-dihydrosphingosine substrate. All cell lines used for these assays were originally sourced from ATCC. […] Human CerS expression plasmids (pCMV6 plasmids from Origene) were transfected using FuGene-6 transfection reagent, and cells were harvested 24 h after transfection in 20 mM Hepes pH 7.4, 10 mM KCl, 1 mM dithiothreitol, 3 mM β-glycerophosphate, and EDTA-free complete protease inhibitor cocktail (Roche). Cells were sonicated in a Diagenode Bioruptor sonicating bath for 5 min, after which cell extracts were cleared by centrifugation at 800 × g for 10 min. Protein concentration in the supernatant was assayed using the bicinchoninic acid (BCA) assay, and the supernatant stored at −80 °C. COS cells were infected with lentiviral constructs expressing murine CerS1, 2, or 5, then homogenised as described above.
The reaction buffer consisted of 20 mM Hepes pH 7.4, 25 mM KCl, 2 mM MgCl2, 0.5 mM dithiothreitol, 0.1% fatty acid free BSA, 10 μM NBD-dihydrosphingosine and 50 μM fatty acid free BSA. C18:0-CoA was used as the fatty acyl substrate for CerS1 and CerS4; C24:1-CoA for CerS2; and C16:0-CoA for CerS5 and CerS6. All reactions were run in triplicate. Test inhibitors were added, after which reactions were started with the addition of 2.5–25 μg lysate protein (optimised depending on the particular CerS isoform being assayed). Assays were run for 30 min at 37 °C, and stopped with the addition of 200 μL methanol. The reaction mixture was transferred to a glass HPLC vial with 300 μL fused glass insert (Thermo Fisher Scientific) and NBD-dihydroceramide reaction products were analysed on a Thermo Scientific Surveyor HPLC connected to a Shimadzu RF-10AXL fluorescent detector (set to gain of 3). […] Data was acquired over a 12 min chromatography run using: solvent A, 0.2% formic acid, 2 mM ammonium formate in water; solvent B, 0.2% formic acid, 1 mM ammonium formate in methanol. The gradient started at 20:80 A/B, increasing to 5:95 A/B over 2 min, then to 100% B over 6 min. The gradient was then held at 100% B for 2 min, before re-equilibration to 20:80 A/B for a further 2 min. Peak areas were integrated using Xcalibur software (Thermo Fisher Scientific).

The target in the next experiment is T2, CerS1 (Homo sapiens, UniProt P27544).
T2 sequence (P27544 1-350): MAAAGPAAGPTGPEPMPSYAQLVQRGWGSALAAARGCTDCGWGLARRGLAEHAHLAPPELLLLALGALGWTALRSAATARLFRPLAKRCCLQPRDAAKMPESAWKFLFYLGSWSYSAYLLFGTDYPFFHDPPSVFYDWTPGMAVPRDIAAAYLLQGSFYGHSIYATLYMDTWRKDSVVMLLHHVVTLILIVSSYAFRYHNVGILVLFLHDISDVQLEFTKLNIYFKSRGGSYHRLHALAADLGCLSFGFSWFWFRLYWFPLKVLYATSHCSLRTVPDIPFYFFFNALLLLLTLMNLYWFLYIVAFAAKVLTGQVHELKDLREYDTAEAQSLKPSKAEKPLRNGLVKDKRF
As to the kind of experiment: Ceramide synthase assay, HPLC-based with fluorescent NBD-dihydrosphingosine, C18:0-CoA; extracts of HEK293 cells expressing human CerS1. More on the design: host or cells: HEK293. As for the experimental part: (§2) Ceramide synthase assays were carried out using an HPLC-based assay with a fluorescent NBD-dihydrosphingosine substrate. All cell lines used for these assays were originally sourced from ATCC. […] Cells were sonicated in a Diagenode Bioruptor sonicating bath for 5 min, after which cell extracts were cleared by centrifugation at 800 × g for 10 min. Protein concentration in the supernatant was assayed using the bicinchoninic acid (BCA) assay, and the supernatant stored at −80 °C. COS cells were infected with lentiviral constructs expressing murine CerS1, 2, or 5, then homogenised as described above.
The reaction buffer consisted of 20 mM Hepes pH 7.4, 25 mM KCl, 2 mM MgCl2, 0.5 mM dithiothreitol, 0.1% fatty acid free BSA, 10 μM NBD-dihydrosphingosine and 50 μM fatty acid free BSA. C18:0-CoA was used as the fatty acyl substrate for CerS1 and CerS4; C24:1-CoA for CerS2; and C16:0-CoA for CerS5 and CerS6. All reactions were run in triplicate. Test inhibitors were added, after which reactions were started with the addition of 2.5–25 μg lysate protein (optimised depending on the particular CerS isoform being assayed). […] The reaction mixture was transferred to a glass HPLC vial with 300 μL fused glass insert (Thermo Fisher Scientific) and NBD-dihydroceramide reaction products were analysed on a Thermo Scientific Surveyor HPLC connected to a Shimadzu RF-10AXL fluorescent detector (set to gain of 3). […] The gradient started at 20:80 A/B, increasing to 5:95 A/B over 2 min, then to 100% B over 6 min. The gradient was then held at 100% B for 2 min, before re-equilibration to 20:80 A/B for a further 2 min. Peak areas were integrated using Xcalibur software (Thermo Fisher Scientific).

The next experiment addresses murine CerS2 (Mus musculus, UniProt Q924Z4). As to the kind of experiment: Ceramide synthase assay, NBD-dihydrosphingosine, C24:1-CoA; COS cells expressing murine CerS2. Particulars: inhibitor range 10 nM–100 μM; read-out: IC50 mCerS2. The procedure: as §2
The reaction buffer consisted of 20 mM Hepes pH 7.4, 25 mM KCl, 2 mM MgCl2, 0.5 mM dithiothreitol, 0.1% fatty acid free BSA, 10 μM NBD-dihydrosphingosine and 50 μM fatty acid free BSA. C18:0-CoA was used as the fatty acyl substrate for CerS1 and CerS4; C24:1-CoA for CerS2; and C16:0-CoA for CerS5 and CerS6. All reactions were run in triplicate. […] The reaction mixture was transferred to a glass HPLC vial with 300 μL fused glass insert (Thermo Fisher Scientific) and NBD-dihydroceramide reaction products were analysed on a Thermo Scientific Surveyor HPLC connected to a Shimadzu RF-10AXL fluorescent detector (set to gain of 3). […]

The target in a further experiment is T3, murine CerS1 (Mus musculus, UniProt P27545).
T3 construct: expressed in transfected cells; host or cells: COS cells (lentiviral infection)
T3 sequence (P27545 whole entry): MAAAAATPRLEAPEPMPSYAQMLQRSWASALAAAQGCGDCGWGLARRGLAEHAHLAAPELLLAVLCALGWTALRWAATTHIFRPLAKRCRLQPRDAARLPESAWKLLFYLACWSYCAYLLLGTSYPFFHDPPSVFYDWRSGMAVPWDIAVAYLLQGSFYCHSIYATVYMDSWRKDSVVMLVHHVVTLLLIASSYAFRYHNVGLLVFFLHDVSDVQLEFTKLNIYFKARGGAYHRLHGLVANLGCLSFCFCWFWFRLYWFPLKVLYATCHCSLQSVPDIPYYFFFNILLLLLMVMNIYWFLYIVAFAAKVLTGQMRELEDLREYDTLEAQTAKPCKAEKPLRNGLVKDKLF
As to the kind of experiment: Ceramide synthase assay, NBD-dihydrosphingosine, C18:0-CoA; COS cells expressing murine CerS1. Particulars: inhibitor range 10 nM–100 μM; read-out: IC50 mCerS1. The procedure: as §1
The reaction buffer consisted of 20 mM Hepes pH 7.4, 25 mM KCl, 2 mM MgCl2, 0.5 mM dithiothreitol, 0.1% fatty acid free BSA, 10 μM NBD-dihydrosphingosine and 50 μM fatty acid free BSA. […] The reaction mixture was transferred to a glass HPLC vial with 300 μL fused glass insert (Thermo Fisher Scientific) and NBD-dihydroceramide reaction products were analysed on a Thermo Scientific Surveyor HPLC connected to a Shimadzu RF-10AXL fluorescent detector (set to gain of 3). […]

Setting [1] is: inhibitor range 10 nM–100 μM, read-out: IC50 hCerS1.

Read-outs that look alike come from different tables or passages of the source.

murine CerS2, sequence (Q924Z4 whole entry, the tested form may be a part): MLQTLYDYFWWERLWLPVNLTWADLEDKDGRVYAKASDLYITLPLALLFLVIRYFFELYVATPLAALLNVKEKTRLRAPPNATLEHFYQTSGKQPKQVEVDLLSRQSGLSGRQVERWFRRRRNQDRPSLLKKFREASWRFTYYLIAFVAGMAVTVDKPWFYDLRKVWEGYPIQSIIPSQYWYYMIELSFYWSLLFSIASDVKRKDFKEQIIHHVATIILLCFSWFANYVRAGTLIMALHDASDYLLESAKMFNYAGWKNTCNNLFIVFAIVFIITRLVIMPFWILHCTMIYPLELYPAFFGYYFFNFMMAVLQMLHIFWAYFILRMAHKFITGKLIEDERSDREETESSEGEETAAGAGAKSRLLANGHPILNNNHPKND

Broadly, the IC50 is the concentration that gives 50% inhibition. Turning to `C[C@@](N)(CO)CCc1ccc(OCc2ccccc2)cc1` [G024, (2S)-2-amino-4-(4′-benzyloxyphenyl)-2-methyl-1-butanol], the values for the IC50 on human CerS6 and at CerS1 (setting [1]) were 8.5 ± 0.13 µM and 6 ± 0.1 µM, respectively.

`C[C@@](N)(CO)CCc1ccc(OCc2ccc(Cl)c(Cl)c2)cc1` [P053, (S)-2-amino-4-(4-(3,4-dichlorobenzyloxy)phenyl)-2-methylbutan-1-ol]: the IC50 at murine CerS2 came out at 18.5 ± 0.12 µM; on murine CerS1, 0.46 ± 0.08 µM; on human CerS6, 11.4 ± 0.17 µM; at CerS1 (setting [1]), 0.54 ± 0.06 µM; on CerS1 (read-out: IC50 for inhibition of CerS1), 0.5 µM.

As to `CCCCCCCCc1ccc(CCC(N)(CO)CO)cc1` [FTY720, reference compound], the IC50 turned out to be 10.6 ± 0.13 µM on murine CerS2, 5.6 ± 0.05 µM on murine CerS1 and 5.8 ± 0.2 µM on human CerS6.

Consider `CCCC[C@@H](C)[C@@H](OC(=O)C[C@@H](CC(=O)O)C(=O)O)[C@H](C[C@@H](C)C[C@H](O)CCCC[C@@H](O)C[C@H](O)[C@H](C)N)OC(=O)C[C@@H](CC(=O)O)C(=O)O` [FB1, reference compound], for which the IC50 stood at 0.29 ± 0.05 µM at human CerS6 and 0.22 ± 0.05 µM on CerS1 (setting [1]). The “IC50, all CerS isoforms” value against CerS1 (all CerS isoforms, in words) is recorded as “sub-micromolar”.

For the origin of these results see publication PMC6104039 (Nature Communications, 2018).
